Read-outs that look alike come from different tables or passages of the source.
Key:
[1] = Aqueous solubility, direct UV kinetic solubility method; format: physicochemical
Procedure: The aqueous solubility of the compound was determined using a direct UV kinetic solubility method (Avdeef, A. 2001. Physicochemical profiling (solubility, permeability and charge state). Curr Top Med Chem 1:277-351) in a 96-well format at pH 5.0, 6.2 and 7.4. Compounds (250 μM) were incubated for 18.0h at room temperature to achieve equilibrium, and then filtered to remove any precipitate. The concentration of the compound in solution was measured by UV absorbance (250-498 nm) and compared to the spectra of precipitation-free reference solutions. Spectroscopically pure 1-Propanol (Sigma, St Louis, Mo.) was used as a cosolvent to suppress precipitation in the reference solutions. The solubility of each compound was determined using μSOL Evolution Plus software v3.2 (pION Inc) and is expressed as the concentration (μg/mL) of a solute in a saturated solution

[2] = tested on: adrenergic receptors (α1a, α1B, α1D, α2A); experiment: Panlabs panel, adrenergic receptors; format: binding; details: @ 10 μM
Description: (§1) However, these activities in in vitro binding assays may not translate into functional modulation of these receptors.

[3] = PK in mouse after iv and ip dose; format: in vivo
plasma proteins = experiment: Plasma protein binding, Rapid Equilibrium Device, human plasma; format: in vitro ADME; details: species not stated
Procedure: (§2) The extent of compound bound to plasma proteins was measured using the Rapid Equilibrium Device (Pierce Thermo Scientific, Rockford Ill.). The base plate was rinsed with […] followed by 2× washes with ultrapure water and allowed to dry. Human and mouse plasma (BioChemed Services, Winchester Va.) collected in EDTA was allowed to thaw at room temperature and then warmed to 37° C., and diluted 1:1 (v:v) with 1×PBS, pH 7.4, prior to the assay. The compound (1.0 and 10.0 μM final) was added to the chamber containing 300 μl plasma:PBS. Next, 500 μl of dialysis buffer (1×PBS, pH7.4) was added to the buffer chambers of the inserts. The chambers were covered with sealing tape and incubated at 37° C. on an orbital shaker at 300× rpm for 4 hours. After the incubation time, a sample volume of 50 μl from the buffer side, representing the free concentration, and an equivalent sample volume from the plasma side, representing the total concentration, i.e. the free concentration+the concentration of drug bound to protein, were transferred from the dialysis cells to a 96 deep well plate for LCMS analysis. Results reported are the mean of each reaction duplicate, normalized to the internal standard, and expressed as a percent compound bound after the incubation time. The amount of compound in the supernatant was determined by LC/MS/MS and the percent of free and bound compounds were calculated with the following formulas: Percent of free parent compound=(amount of compound in receiver chamber/amount of compound in donor chamber)*100.

[4] = as above; format: in vitro ADME; details: human plasma (EDTA), diluted 1:1 with PBS, pH 7.4, Human, read-out: Plasma Protein Binding (% Bound) (converted)
Procedure: as §2

NTSR1 (NTR1) = target: T1, NTSR1 (NTR1) (Homo sapiens, UniProt P30989); experiment: NTR1 β-Arrestin dose response (DiscoveRx PathHunter, CHO-K1); format: cell-based
T1 construct: host or cells: CHO-K1
Procedure: The NTR1 β-Arrestin assays were performed using a PathHunter™ eXpress kit (93-0446E2) which contained the NTSR1 (NTR1) CHO cell line, OCC2 media (30-409), as well as the PathHunter Detection Reagents (93-0446E2). The kit was obtained from DiscoveRx (Fremont, Calif.). The assay employed the same neurotensin 1 peptide as a control as was used in the NTR1 primary assay. The assay was run in 1536-well, white, solid-bottom tissue culture plates (3727) from Corning.
On day one of the assay, 5 uL of a cell suspension containing 120,000 NTSR1 (NTR1) CHO-K1 cells per mL in OCC2 media is added to each well of a 1536-well assay plate using a Multidrop Combi. The assay plates are then incubated for 48 hours at 37° C., under 5% CO2. Following the two day incubation, a volume of 20, 10, and 5 nL of 10 and 1.2 mM test compounds in DMSO were transferred from source wells to test compound wells in assay plates with a LabCyte Echo to achieve final assay concentrations ranging from 33 to 1.03 uM for each test sample. Test compound wells and control wells were backfilled with DMSO to achieve a final volume of DMSO of 20 nL or a final assay concentration of 0.33%. […] Plates are again centrifuged as previously described then incubated at room temperature for 1 hour before being read on the PerkinElmer using a luminescent protocol.

[5] = Plasma stability, human plasma; format: in vitro ADME
Procedure: Plasma stability was determined using previously published methods (Kerns, E. H., and Di, L. 2008. Drug-like Properties: Concepts, Structure Design and Methods. Oxford UK: Elsevier). Compound (1.0 μM) was incubated at 37° C. in human or mouse plasma (from blood of healthy donors collected on EDTA) diluted to 50% (v/v) with pH 7.4 isotonic phosphate buffer. At time 0 min and 180 min, aliquots were collected, added to acetonitrile to quench the reaction and precipitate plasma proteins. These samples were centrifuged and the supernatant analyzed by the LC/MS/MS method described above for the presence of the parental compound.

[6] = Brain levels in mouse after ip dosing; format: in vivo
MOR = target: T2, MOR (Homo sapiens, UniProt P35372); experiment: Panlabs/Ricerca lead profiling panel, MOR; format: binding; details: @ 10 μM
T2 construct: Panlabs/Ricerca (contract panel)
Description: as §1

T1 sequence (P30989 whole entry): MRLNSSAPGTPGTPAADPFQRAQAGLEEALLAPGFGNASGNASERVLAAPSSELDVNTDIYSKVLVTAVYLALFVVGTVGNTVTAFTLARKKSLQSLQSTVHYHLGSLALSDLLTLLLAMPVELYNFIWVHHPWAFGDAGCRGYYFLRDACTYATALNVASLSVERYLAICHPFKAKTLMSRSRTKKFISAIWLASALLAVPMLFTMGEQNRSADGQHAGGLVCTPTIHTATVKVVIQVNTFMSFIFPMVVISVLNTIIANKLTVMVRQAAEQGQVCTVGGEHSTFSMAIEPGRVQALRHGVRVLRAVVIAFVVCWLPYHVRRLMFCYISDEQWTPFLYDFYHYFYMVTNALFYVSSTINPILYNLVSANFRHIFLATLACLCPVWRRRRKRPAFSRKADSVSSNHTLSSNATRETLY
T2 sequence (P35372 whole entry): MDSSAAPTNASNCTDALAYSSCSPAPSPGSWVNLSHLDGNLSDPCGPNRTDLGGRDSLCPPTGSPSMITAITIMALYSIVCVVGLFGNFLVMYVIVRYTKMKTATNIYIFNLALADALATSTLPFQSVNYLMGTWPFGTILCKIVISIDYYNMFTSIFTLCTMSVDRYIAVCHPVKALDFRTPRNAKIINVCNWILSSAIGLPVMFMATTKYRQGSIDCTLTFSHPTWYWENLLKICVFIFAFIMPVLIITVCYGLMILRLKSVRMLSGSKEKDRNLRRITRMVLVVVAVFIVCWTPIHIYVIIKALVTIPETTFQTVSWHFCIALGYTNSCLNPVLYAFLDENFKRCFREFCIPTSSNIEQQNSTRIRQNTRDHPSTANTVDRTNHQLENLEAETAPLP

In the case of COc1cc2nc(C3CC3)nc(N3CCN(c4ccccc4OC)CC3)c2cc1OC [Compound 315, 2-cyclopropyl-6,7-dimethoxy-4-(4-(2-methoxyphenyl)piperazin-1-yl)quinazoline], the solubility at 18 h ([1]; 1x PBS, pH 7.4, aqueous buffer, kinetic from dmso stock, read-out: Aqueous Solubility in 1x PBS, pH 7.4) is reported as 0.45 µg/mL, the “Aqueous Solubility in 1x PBS, pH 7.4” value ([1]; 1x PBS, pH 7.4, molar units) is reported as 1.1 μM and the “Aqueous Solubility in pION's buffer” value ([1]; pH 6.2) is reported as 9.0 μg/mL. The solubility at 18 h ([1]; pH 7.4, molar units, read-out: Aqueous Solubility in pION's buffer) was 1.2 µM, the solubility at 18 h ([1]; pION's buffer, aqueous buffer, kinetic from dmso stock, pH 5.0, molar units, read-out: Aqueous Solubility in pION's buffer) was greater than 297 µM and the solubility at 18 h ([1]; pION's buffer, aqueous buffer, kinetic from dmso stock, pH 5.0, read-out: Aqueous Solubility in pION's buffer) was greater than 125 µg/mL. For the same molecule, the solubility at 18 h ([1]; pION's buffer, pH 7.4, aqueous buffer, kinetic from dmso stock, read-out: Aqueous Solubility in pION's buffer) was 0.52 µg/mL, the “activity across adrenergic receptors α1a, α1B, α1D, α2A” value [2] was 63-100% and the Vdss ([3]; 2 mg/kg iv dose) was 6.22 L/kg. The t1/2 ([3]; 2 mg/kg iv dose) was 1.93 h, the AUC ([3]; 10 mg/kg ip dose) was 1223 ng·h/mL and the Cmax ([3]; 10 mg/kg ip dose) was 763 ng/mL. For the same molecule, the t1/2 ([3]; 10 mg/kg ip dose) was 2.58 h, the “PK properties in mouse” value ([3]; in vivo) was “modest PK properties” and the “plasma protein binding” value (plasma proteins) was “highly plasma protein bound”. It also gave a fraction unbound at 4 h, 1 μM ([4]; 1 μM) of 0.0055, a fraction unbound at 4 h, 10 μM ([4]; 10 μM) of 0.0078 and an EC50 (NTSR1 (NTR1)) of 3.41 µM. For the same molecule, the “Plasma Stability (% Remaining at 3 hrs)” value ([5]; Human) was 100%, the “plasma stability” value ([5]; species not stated) was “very high plasma stability” and the brain/plasma ([6]; 1 hr after 10 mg/kg ip dose) was 1.3. For the same molecule, the brain/plasma ([6]; 1 hr after 30 mg/kg ip dose) was 1.6 and the “activity at MOR” value (MOR) was 86%.
